Literature values, collected in patent US5691376A, “Substituted biphenyl derivatives” (American Home Products Corporation, priority 1996, dated 1997).

Legend:
murine T-cell = conditions: Strauch 1989; cited from earlier work
[1] = tested on: humoral (IgE-like) antibodies; conditions: albumin allergic challenge; Martel 1977; cited from earlier work

CO[C@H]1C[C@@H]2CC[C@@H](C)[C@@](O)(O2)C(=O)C(=O)N2CCCC[C@H]2C(=O)O[C@H]([C@H](C)C[C@@H]2CC[C@@H](O)[C@H](OC)C2)CC(=O)[C@H](C)/C=C(\C)[C@@H](O)[C@@H](OC)C(=O)[C@H](C)C[C@H](C)/C=C/C=C/C=C/1C [Rapamycin]
inhibition of T-cell activation (murine T-cell): inhibit murine T-cell activation | prevention of formation of humoral (IgE-like) antibodies [1]: prevent the formation of humoral (IgE-like) antibodies in response to an albumin allergic challenge
